Laboratory results taken from patent US20160102074A1, “SUBSTITUTED AMIDE COMPOUNDS” (PFIZER INC., priority 2014, published 2016).

Key:
[1] = system: human PCSK9; assay: In vivo plasma PCSK9 lowering in humanized PCSK9 mice; parameters: species or system mouse; details: hPCSK9 mice, single oral dose 500 mg/kg, relative to hour zero (baseline) levels
Text: A humanized PCSK9 mouse model was developed to assess compound activity in vivo. This model was established by first generating a transgenic mouse containing the full-length human PCSK9 gene and its promoter through pronuclear injection of the bacterial artificial chromosome (BAC), RP11-627J9, into C57B16J mice. Mice containing the human PCSK9 transgene were then bred with PCSK9 knockout mice on a 129/C57BL6J background (Rashid S, Curtis D E, Garuti R, et al. Decreased plasma cholesterol and hypersensitivity to statins in mice lacking Pcsk9. Proc Natl Acad Sci USA 2005; 102(15):5374-9). […] For example, ethyl (S)-1-{5-[4-(4-{(3-chloropyridin-2-yl)[(3R)-piperidin-3-yl]carbamoyl}-2-fluorophenyl)-1-methyl-1H-pyrazol-5-yl]-1H-tetrazol-1-yl}ethyl carbonate (the parent molecule) was dosed orally and plasma and liver concentrations were measured for the metabolite, N-(3-chloropyridin-2-yl)-3-fluoro-4-[1-methyl-5-(2H-tetrazol-5-yl)-1H-pyrazol-4-yl]-N-[(3R)-piperidin-3-yl]benzamide. Quantitation of human plasma PCSK9 was performed using a commercially available sandwich ELISA kit (R&D Systems, DPC900) incorporating a horse radish peroxidase (HRP) conjugated secondary antibody (R&D Systems, DPC900) to generate a colorimetric signal proportional to PCSK9 concentration per the manufacturer's protocol. […]

[2] = system: PCSK9; assay: PCSK9 lowering in sandwich culture human hepatocytes (SCHH); type: cell-based; details: sandwich culture primary cryopreserved human hepatocytes, secreted PCSK9 by AlphaLISA
Procedure: PCSK9 Lowering and Compound Concentration Determination in Sandwich Culture Human Hepatocytes (SCHH)
Test compound in-vitro pharmacokinetic and pharmacodynamic relationships were measured in sandwich culture primary cryopreserved human hepatocytes. Within these studies SCHH cells (BD Biosciences IVT) were thawed at 37° C. then placed on ice, after which the cells were added to pre-warmed (37° C.) In VitroGRO-HT media and centrifuged at 50×g for 3 min. The cell pellet was re-suspended to 0.8×10^6 cells/mL in InVitroGRO-CP plating medium and cell viability determined by trypan blue exclusion. On day 1, hepatocyte suspensions were plated in BioCoat 96-well plates at a density of 80000 cells/well in a volume of 0.1 mL/well. After 18 to 24 hours of incubation at 37° C. in 5% CO2, cells were overlaid with ice-cold 0.25 mg/mL BD Matrigel Matrix Phenol Red-Free in incubation medium at 0.1 mL/well. Cultures were maintained at 37° C. in 5% CO2 in InVitroGRO-HI (FBS-free media), which was replaced every 24 hours and time course treatments were initiated on day 5. […] Percent PCSK9 lowering versus vehicle treated cells was then determined for each time point and the maximum response (and the corresponding concentration and time when observed) is reported under the Sandwich Culture Hepatocyte (SCHH) PCSK9 lowering summarized in Table 3. […]

SMILES	Percent Plasma PCSK9 Lowering at 4 hours [1] [%]	IC50 [2] [µM]
CCOC(=O)O[C@@H](C)n1nnnc1-c1c(-c2ccc(C(=O)N(c3ncccc3Cl)[C@@H]3CCCNC3)cc2)cnn1C [Example 6, ethyl (S)-1-{5-[1-methyl-4-(4-{(3-chloropyridin-2-yl)[(3R)-piperidin-3-yl]carbamoyl}phenyl)-1H-pyrazol-5-yl]-1H-tetrazol-1-yl}ethyl carbonate]	71	–
Cn1ncc(-c2ccc(C(=O)N(c3ncccc3Cl)[C@@H]3CCCNC3)cc2F)c1-c1nn[nH]n1 [Example 3, N-(3-chloropyridin-2-yl)-3-fluoro-4-[1-methyl-5-(2H-tetrazol-5-yl)-1H-pyrazol-4-yl]-N-[(3R)-piperidin-3-yl]benzamide]	–	63.4
CCOC(=O)O[C@@H](C)n1nnnc1-c1c(-c2ccc(C(=O)N(c3ncccc3Cl)[C@@H]3CCCNC3)cc2F)cnn1C [Example 7, ethyl (S)-1-{5-[4-(4-{(3-chloropyridin-2-yl)[(3R)-piperidin-3-yl]carbamoyl}-2-fluorophenyl)-1-methyl-1H-pyrazol-5-yl]-1H-tetrazol-1-yl}ethyl carbonate]	72	–
